{
  "source": "patent US12016335B2",
  "about": "“Stabilized low-concentration metsulfuron-methyl liquid composition” (FMC CORPORATION, priority 2013, dated 2024)",
  "assay": "Chemical stability of metsulfuron-methyl and thifensulfuron-methyl during aging of compositions at 40° C. (HPLC)",
  "format": "physicochemical",
  "description": "When prepared, the compositions were analyzed by HPLC for metsulfuron-methyl and thifensulfuron-methyl content. The stability of metsulfuron-methyl and thifensulfuron-methyl in the compositions prepared was then determined by aging samples in ovens at 40° C. for 4 and 8 weeks. Storage at 40° C. at 8 weeks simulates two-year storage at ambient temperature. Control samples were stored in a freezer at −6° C. […] At the end of the allotted times, samples were removed from the ovens and analyzed by HPLC for metsulfuron-methyl or thifensulfuron-methyl content. The relative chemical stability was calculated by dividing the assay of the oven-aged sample by that of the control sample analyzed on the same day.",
  "data": [
    {"smiles": "COC(=O)c1sccc1S(=O)(=O)NC(=O)Nc1nc(C)nc(OC)n1", "note": "[thifensulfuron-methyl, methyl 3-[[[[(4-methoxy-6-methyl-1,3,5-triazin-2-yl)amino]carbonyl]amino]-sulfonyl]-2-thiophenecarboxylate]", "values": [
      {"measurement": "stability of the thifensulfuron-methyl component itself", "value": "excellent stability"}
    ]}
  ]
}
